These results are taken from ChEMBL document CHEMBL1146161, “Synthesis and anti-HIV properties of new hydroxyquinoline-polyamine conjugates on cells infected by HIV-1 LAV and HIV-1 BaL viral strains” (Bioorg Med Chem Lett, 2006).

For data set [1], the system named is Human immunodeficiency virus 1. Briefly: Antiviral activity against HIV1 LAV in PBMC. Format: functional, organism-based. To be noted: for EC50: Human immunodeficiency virus 1, LAV.
The test system of data set [2] is Human immunodeficiency virus 1. Description: Antiviral activity against HIV1 BaL in PBMC. Format: functional, organism-based. Particulars: for EC50: Human immunodeficiency virus 1, BaL.
Data set [3] can be described thus: Cytotoxicity against PBMC. It counts as cell-based. Particulars: human.

Calls of active or inactive are those of the source. No cut-off for these calls is given here.

On to `Oc1ccc(CN2CCCNCCNCCCNCC2)c2cccnc12`, for which the EC50 in data set [1] stood at 4.1 µM; in data set [2], 4.35 µM. For the same molecule, the CC50 in data set [3] is more than 10 µM.

Consider `Oc1ccc(CN2CCCN(Cc3ccc(O)c4ncccc34)CCNCCCNCC2)c2cccnc12`, for which the response in data set [1] was half-maximal at 4.1 µM (EC50). Further, in data set [2], the Activity entry was “Toxic”. In data set [3], the midpoint of cytotoxicity, the CC50, lay at 8 µM.

For `Oc1ccc(CCl)c2cccnc12`, in data set [1], it took 5.1 µM to reach a half-maximal effect (EC50). In addition, the result in data set [2] was inactive. Further, the CC50 in data set [3] is more than 10 µM.

`c1cc(CN2CCCNCCNCCCNCC2)ccc1CN1CCCNCCNCCCNCC1` [PLERIXAFOR] gave an EC50 in data set [1] of 0.47 µM. Also, the result in data set [2] was inactive. In data set [3], the CC50 is more than 10 µM.

Consider `c1cc(CN2CCCNCCNCCCNCC2)cc(CN2CCCNCCNCCCNCC2)c1`, for which the EC50 in data set [1] is 0.05 µM. Further, the outcome in data set [2] was inactive. In data set [3], this molecule displayed a CC50 of more than 10 µM.

Take `Oc1ccc(CN2CCCNCCCNCCNCCC2)c2cccnc12`: the EC50 was found to be 1.5 µM in data set [1] and 1.25 µM in data set [2]. Besides, the CC50 in data set [3] was more than 10 µM.

As to `Oc1ccc(CN2CCN(Cc3ccc(O)c4ncccc34)CC2)c2cccnc12`, the result in data set [1] and in data set [2] was inactive. Also, in data set [3], the CC50 is more than 10 µM.

As for `Oc1ccc(CNCCCNCc2ccc(O)c3ncccc23)c2cccnc12`, the result in data set [1] and in data set [2] was inactive. This molecule also had a CC50 in data set [3] of more than 10 µM.

As to `Oc1c(I)cc(Cl)c2cccnc12` [CLIOQUINOL], the result in data set [1] and in data set [2] was inactive. This molecule returned a CC50 in data set [3] of 2 µM.

Consider `Oc1ccc(CN2CCCNCCN(Cc3ccc(CN4CCCNCCNCCCNCC4)cc3)CCCNCC2)c2cccnc12`, for which the EC50 in data set [1] stood at 0.7 µM; in data set [2] it was 3.5 µM. The CC50 in data set [3] is more than 10 µM.

Turning to `Oc1ccc(CNCc2ccc(CNCc3ccc(O)c4ncccc34)cc2)c2cccnc12`, the outcome in data set [1] and in data set [2] was inactive. Besides, the CC50 in data set [3] is more than 10 µM.
